# Reference: US20240197666A1, “DITERPENOID COMPOUNDS THAT ACT ON PROTEIN KINASE C (PKC)” (K-Gen Therapeutics, Inc., priority 2021, published 2024)
# Legend:
# [1] = target: T1, C1b domain of human PKCε (Homo sapiens, UniProt Q02156); test: biochemical; format: binding; conditions: 3H-PDBu competition
# T1 construct: Genes encoding C1b domains of human PKCα, δ, ε, θ, and PKD1 (PKCμ) were synthesized; made in house; host or cells: E. coli BL21(DE3)
# Method in brief: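 Affinity was measured by competition with the radiotracer 3H-PDBu for recombinant human GST-C1b fusion proteins expressed in E. coli BL21(DE3). Incubation ran 10 minutes at 37° C with shaking, then 20 minutes on ice, and filter-trapped 3H-PDBu was counted by scintillation. IC50 values were converted to Ki by Cheng-Prusoff using the experimentally determined Kd for each protein preparation.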
# [2] = target: T2, C1b domain of human PKCα (Homo sapiens, UniProt P17252); test: biochemical; format: binding; conditions: 3H-PDBu competition
# T2 construct: Genes encoding C1b domains of human PKCα, δ, ε, θ, and PKD1 (PKCμ) were synthesized; made in house; host or cells: E. coli BL21(DE3)
# [3] = tested on: phosphorylation of PKCμ, PKCδ and Erk1/2 in A549 lung cancer cells; test: Western blot of activation of PKC and downstream target protein in A549 cells; format: cell-based; conditions: 0.3 μM, 30 minutes
# Method in brief: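 A549 cells grown overnight were treated 30 min with compound at two concentrations. Lysates were analysed by Western blot or Wes with phospho-specific antibodies to PKCμ, PKCδ (including S299) and Erk1/2, using β-actin or vinculin loading controls. Prostratin at 1 μM served as reference.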
# [4] = tested on: human PBMC cells; test: Cytokine/chemokine gene expression in human PBMC (TaqMan); format: cell-based; conditions: 4 h;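 as to Gene Relative Expression CCL2: 2^-ΔΔCt fold change vs DMSO control normalized to 18S and GAPDH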;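 as to Gene Relative Expression GM-CSF: 2^-ΔΔCt fold change vs DMSO control normalized to 18S and GAPDH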;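 as to Gene Relative Expression IFN-α: 2^-ΔΔCt fold change vs DMSO control normalized to 18S and GAPDH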;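 as to Gene Relative Expression IFNγ: 2^-ΔΔCt fold change vs DMSO control normalized to 18S and GAPDH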
# Description: Each treatment condition was performed in duplicates.
# T1 sequence (Q02156 242-292 limits assumed): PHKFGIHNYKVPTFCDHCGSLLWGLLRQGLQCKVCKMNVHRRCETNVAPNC
smiles,measurement,setting,value
CC1=C[C@H]2[C@@]3(O)[C@H](C)C[C@]4(OC(=O)[C@@H](N)CC5CCCCC5)[C@H]([C@@H]3C=C(CO)C[C@]2(O)C1=O)C4(C)C,Ki,[1],10 to 30 nM
same,Ki,[2],60 to 100 nM
same,"phosphorylation of PKCμ, PKCδ and Erk1/2",[3],induced high levels of phosphorylation
CC1=C[C@H]2[C@@]3(O)[C@H](C)C[C@]4(OC(=O)[C@@H](N)[C@]56C[C@H]7C[C@H](C[C@H](C7)C5)C6)[C@H]([C@@H]3C=C(CO)C[C@]2(O)C1=O)C4(C)C,Gene Relative Expression CCL2,[4]; 0.01 μM,5.58
same,Gene Relative Expression GM-CSF,[4]; 0.01 μM,1.59
same,Gene Relative Expression IFN-α,[4]; 0.01 μM,0.78
same,Gene Relative Expression IFNγ,[4]; 0.01 μM,1.69
same,Gene Relative Expression IL-1β,[4]; 0.01 μM,0.59
same,Gene Relative Expression IL-2,[4]; 0.01 μM,3.06
same,Gene Relative Expression IL-4,[4]; 0.01 μM,0.84
same,Gene Relative Expression IL-6,[4]; 0.01 μM,1.17
same,Gene Relative Expression IL-8,[4]; 0.01 μM,0.71
same,Gene Relative Expression IL-10,[4]; 0.01 μM,1.12
same,Gene Relative Expression IL-12p40,[4]; 0.01 μM,0.89
same,Gene Relative Expression IL-12p70,[4]; 0.01 μM,1.03
same,Gene Relative Expression IL-13,[4]; 0.01 μM,3.10
same,Gene Relative Expression IL-18,[4]; 0.01 μM,0.26
same,Gene Relative Expression ISG15,[4]; 0.01 μM,1.01
same,Gene Relative Expression MIP1a (CCL3),[4]; 0.01 μM,1.65
same,Gene Relative Expression MX1,[4]; 0.01 μM,0.84
same,Gene Relative Expression OAS1,[4]; 0.01 μM,0.74
same,Gene Relative Expression TNF-α,[4]; 0.01 μM,2.39
same,Gene Relative Expression CCL2,[4]; 0.03 μM,3.59
same,Gene Relative Expression GM-CSF,[4]; 0.03 μM,8.38
same,Gene Relative Expression IFN-α,[4]; 0.03 μM,0.46
same,Gene Relative Expression IFNγ,[4]; 0.03 μM,3.82
same,Gene Relative Expression IL-1β,[4]; 0.03 μM,2.26
same,Gene Relative Expression IL-2,[4]; 0.03 μM,7.78
same,Gene Relative Expression IL-4,[4]; 0.03 μM,2.54
same,Gene Relative Expression IL-6,[4]; 0.03 μM,0.86
same,Gene Relative Expression IL-8,[4]; 0.03 μM,0.54
same,Gene Relative Expression IL-10,[4]; 0.03 μM,0.41
same,Gene Relative Expression IL-12p40,[4]; 0.03 μM,0.32
same,Gene Relative Expression IL-12p70,[4]; 0.03 μM,0.87
same,Gene Relative Expression IL-13,[4]; 0.03 μM,52.65
same,Gene Relative Expression IL-18,[4]; 0.03 μM,0.06
same,Gene Relative Expression ISG15,[4]; 0.03 μM,1.33
same,Gene Relative Expression MIP1a (CCL3),[4]; 0.03 μM,2.82
same,Gene Relative Expression MX1,[4]; 0.03 μM,1.01
same,Gene Relative Expression OAS1,[4]; 0.03 μM,0.78
same,Gene Relative Expression TNF-α,[4]; 0.03 μM,4.48
same,Gene Relative Expression CCL2,[4]; 0.10 μM,0.38
same,Gene Relative Expression GM-CSF,[4]; 0.10 μM,16.06
same,Gene Relative Expression IFN-α,[4]; 0.10 μM,0.31
same,Gene Relative Expression IFNγ,[4]; 0.10 μM,18.08
same,Gene Relative Expression IL-1β,[4]; 0.10 μM,3.00
same,Gene Relative Expression IL-2,[4]; 0.10 μM,3.29
same,Gene Relative Expression IL-4,[4]; 0.10 μM,2.77
same,Gene Relative Expression IL-6,[4]; 0.10 μM,6.72
same,Gene Relative Expression IL-8,[4]; 0.10 μM,0.60
same,Gene Relative Expression IL-10,[4]; 0.10 μM,0.09
same,Gene Relative Expression IL-12p40,[4]; 0.10 μM,0.22
same,Gene Relative Expression IL-12p70,[4]; 0.10 μM,0.76
same,Gene Relative Expression IL-13,[4]; 0.10 μM,101.38
same,Gene Relative Expression IL-18,[4]; 0.10 μM,0.06
same,Gene Relative Expression ISG15,[4]; 0.10 μM,1.54
same,Gene Relative Expression MIP1a (CCL3),[4]; 0.10 μM,5.73
same,Gene Relative Expression MX1,[4]; 0.10 μM,0.99
same,Gene Relative Expression OAS1,[4]; 0.10 μM,0.69
same,Gene Relative Expression TNF-α,[4]; 0.10 μM,6.25
same,Ki,[2],10 to 30 nM
